Like-named read-outs stand apart in the source and are kept apart here.
Tests used:
K562 cells = test: Cell Titer Glo 2.0 cell viability (toxicity) assay, K562; settings: 500 cells/well, 72 hours
MYB mRNA = test: RT-qPCR splicing assay, MYB mRNA canonical (CJ) and alternative (AJ) junction; assay type: cell-based, human; settings: Homo sapiens; for AC50: MYB alternative junction mRNA, read-out: MYB AJ (increase in AJ mRNA, AC50)
Method in brief: (§1)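 Splice switching quantified in compound-treated A673/K562 cells after 24 h exposure (top dose 10 uM, 3-fold steps, ≤0.25% DMSO), using CJ and AJ qPCR assays run at least in duplicate. RQ derived by 2^(−ΔΔCt), then percentage response.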

SMN2 mRNA = test: RT-qPCR splicing assay, SMN2 mRNA; assay type: cell-based, human; settings: Homo sapiens, canonical junction qPCR panel, Table 4; read-out: SMN2 IC50 (decrease in CJ mRNA levels)
Method in brief: as §1

MYB = test: HiBiT protein abundance assay, MYB (K562 HiBiT knock-in); assay type: cell-based, human; settings: HiBiT knock-in K562 cells, 24 hours, top dose 10 μM
Experimental: (§2) Compounds described herein were used to screen for effects on quantitative protein abundance using a HiBit assay system (Promega). Quantitative protein abundance was determined by measuring the protein levels of HiBit-tagged protein targets expressed in cell culture via luminescence using the Nano-Glo HiBiT Lytic Detection System, which uses a split complementation assay format to reconstitute NanoBiT enzyme to generate a luminescent signal. A protein abundance assay was developed such that endogenous protein targets could be modified with the HiBiT peptide tag and their abundance could be assessed after compound treatment. Briefly, K562 cell lines containing a HiBiT-modification were treated with various compounds described herein (e.g., compounds of Formulas (I), or (II)). After treatment for 24 hours, the protein abundance of a specific target was determined by measuring luminescence.
(§3) Cells were maintained in IMIDM with 10% FBS. Before the assay, cells were diluted with […] growth media (IMIDM+[…] media) and were seeded in a 384-well plate at a density of 10000 cells/well (for each cell line listed in Table 6). Each compound was prepared as a 10-point 3-fold serial dilution in DMSO with the top dose at a final concentration of 10 μM in the well. Unmodified K562 cells were added at the previously specified density with DMSO to serve as an assay baseline and positive control (PC) and DMSO only with the respective modified cell lines was added to the negative control (NC) columns. Final DMSO concentration was kept at or below 0.25%. Treated cell plates were placed in an incubator at 37° C. with […] for 24 hours. After 24 hours, 25 μL of Complete HiBit Lytic reagent was added to each well at room temperature (e.g. one plate requiring 10 mL Lytic Buffer, 100 μL LgBiT Protein, 200 μL Lytic Substrate), shaken for 5 minutes at 600 RPM, then left to sit for 10 minutes for signal to stabilize before reading on a Spark Cyto plate reader (Tecan) with a 500 ms measurement time.
(§4) To determine compound effects on protein abundance of each target in Table 6, the percent response for each respective cell line was calculated at each compound concentration as follows:
(§5) % response=100*(S−PC)(NC−PC)
(§6) For the normalized response at each concentration, a four-parameter logistical regression was fit to the data and the response was interpolated at the […] to determine a concentration for protein abundance at 50% (IC50) the untreated control.

HTT = test: HiBiT protein abundance assay, HTT (K562 HiBiT knock-in); assay type: cell-based, human; settings: HiBiT knock-in K562 cells, 24 hours, top dose 10 μM
Experimental: as §2, §3, §4, §5, §6

HTT mRNA = test: RT-qPCR splicing assay, HTT mRNA canonical (CJ) and alternative (AJ) junction; assay type: cell-based, human; settings: Homo sapiens; for AC50: HTT alternative junction mRNA, read-out: HTT AJ (increase in AJ mRNA, AC50)
Method in brief: as §1

Target C = test: HiBiT protein abundance assay, Target C (K562 HiBiT knock-in); assay type: cell-based, human; settings: HiBiT knock-in K562 cells, 24 hours, top dose 10 μM
Experimental: as §3, §4, §5, §6

[1] = MYB canonical junction mRNA, RT-qPCR, read-out: MYB CJ (decrease in CJ mRNA levels, IC50)
[2] = canonical junction qPCR panel, Table 4, read-out: MYB IC50 (decrease in CJ mRNA levels)
[3] = HTT canonical junction mRNA, RT-qPCR, read-out: HTT CJ (decrease in CJ mRNA levels, IC50)
[4] = canonical junction qPCR panel, Table 4, read-out: HTT IC50 (decrease in CJ mRNA levels)

SMILES | Effect of Exemplary Compounds on Cell Viability, K562 (K562 cells) | AC50 (MYB mRNA; RT-qPCR) | IC50 (MYB mRNA; [1]) | IC50 (MYB mRNA; [2]) | IC50 (SMN2 mRNA) | IC50 (MYB) | IC50 (HTT) | AC50 (HTT mRNA; RT-qPCR) | IC50 (HTT mRNA; [3]) | IC50 (HTT mRNA; [4]) | IC50 (Target C)
Cn1cc2cc(-c3ccc4nc(N5CCNC(C)(C)C5)ccc4n3)c(O)cc2n1 [Compound 120] | B (B represents 100-1000 nM) | 100 to 1000 nM | 100 to 1000 nM | 100 to 1000 nM | < 100 nM | 1000 to 10000 nM | 1000 to 10000 nM | 1000 to 10000 nM | 1000 to 10000 nM | 1000 to 10000 nM | 1000 to 10000 nM
Cn1cc2cc(-c3ccc4nc(N5CCNC6(CC6)C5)ccc4n3)c(O)cc2n1 [Compound 121] | C (C represents 1000-9999 nM) | 100 to 1000 nM | 100 to 1000 nM | 100 to 1000 nM | 1000 to 10000 nM | 1000 to 10000 nM | 1000 to 10000 nM | 1000 to 10000 nM | 1000 to 10000 nM | 1000 to 10000 nM | 1000 to 10000 nM
Cn1cc2cc(-c3ccc4nc(N5CC6(CNC6)C5)ccc4n3)c(O)cc2n1 [Compound 124] | B (B represents 100-1000 nM) | 100 to 1000 nM | 100 to 1000 nM | 100 to 1000 nM | < 100 nM | 100 to 1000 nM | < 100 nM | 100 to 1000 nM | < 100 nM | < 100 nM | < 100 nM
Cn1cc2cc(-c3ccc4nc(N5CCC(N6CCCC6)C5)ccc4n3)c(O)cc2n1 (stereo not shown) [Compound 125] | B (B represents 100-1000 nM) | < 100 nM | 100 to 1000 nM | 100 to 1000 nM | < 100 nM | 100 to 1000 nM | 100 to 1000 nM | 100 to 1000 nM | 100 to 1000 nM | 100 to 1000 nM | 100 to 1000 nM
Cn1cc2cc(-c3ccc4nc(N5CCC(NC(C)(C)C)C5)ccc4n3)c(O)cc2n1 (stereo not shown) [Compound 127] | B (B represents 100-1000 nM) | < 100 nM | < 100 nM | < 100 nM | < 100 nM | < 100 nM | < 100 nM | < 100 nM | < 100 nM | < 100 nM | < 100 nM
CN(C)C1CCN(c2ccc3nc(-c4cc5cn(C)nc5cc4O)ccc3n2)C1 (stereo not shown) [Compound 129] | B (B represents 100-1000 nM) | 100 to 1000 nM | 100 to 1000 nM | 100 to 1000 nM | < 100 nM | 100 to 1000 nM | 100 to 1000 nM | 100 to 1000 nM | 100 to 1000 nM | 100 to 1000 nM | 100 to 1000 nM
CCNC1CCN(c2ccc3nc(-c4cc5cn(C)nc5cc4O)ccc3n2)CC1 [Compound 131] | B (B represents 100-1000 nM) | 1000 to 10000 nM | 1000 to 10000 nM | 1000 to 10000 nM | < 100 nM | 1000 to 10000 nM | 1000 to 10000 nM | > 10000 nM | 1000 to 10000 nM | 1000 to 10000 nM | 1000 to 10000 nM
Cn1cc2cc(-c3ccc4nc(N5CCC(NC(C)(C)C)CC5)ccc4n3)c(O)cc2n1 [Compound 132] | C (C represents 1000-9999 nM) | > 10000 nM | > 10000 nM | > 10000 nM | > 10000 nM | > 10000 nM | > 10000 nM | > 10000 nM | > 10000 nM | > 10000 nM | > 10000 nM
CN(C)C1CCN(c2ccc3nc(-c4cc5cn(C)nc5cc4O)ccc3n2)CC1 [Compound 133] | B (B represents 100-1000 nM) | 100 to 1000 nM | 1000 to 10000 nM | 1000 to 10000 nM | < 100 nM | 1000 to 10000 nM | 1000 to 10000 nM | 1000 to 10000 nM | 1000 to 10000 nM | 1000 to 10000 nM | 1000 to 10000 nM
Cn1cc2cc(-c3ccc4nc(N5CCNCC5)ccc4n3)c(O)cc2n1 [Compound 136] | B (B represents 100-1000 nM) | 100 to 1000 nM | 100 to 1000 nM | 100 to 1000 nM | < 100 nM | 100 to 1000 nM | 100 to 1000 nM | 1000 to 10000 nM | 1000 to 10000 nM | 1000 to 10000 nM | 100 to 1000 nM
C[C@@H]1CC(c2ccc3nc(-c4cc5cn(C)nc5cc4O)ccc3n2)C[C@H](C)N1 (stereo partly shown) [Compound 137] | B (B represents 100-1000 nM) | 100 to 1000 nM | 100 to 1000 nM | 100 to 1000 nM | < 100 nM | 100 to 1000 nM | 100 to 1000 nM | 1000 to 10000 nM | 100 to 1000 nM | 100 to 1000 nM | 100 to 1000 nM
CCN1CCC(c2ccc3nc(-c4cc5cn(C)nc5cc4O)ccc3n2)CC1 [Compound 138] | B (B represents 100-1000 nM) | 100 to 1000 nM | 100 to 1000 nM | 100 to 1000 nM | < 100 nM | 100 to 1000 nM | 100 to 1000 nM | 100 to 1000 nM | 100 to 1000 nM | 100 to 1000 nM | 100 to 1000 nM
C[C@H]1C[C@H](c2ccc3nc(-c4cc5cn(C)nc5cc4O)ccc3n2)CCN1 [Compound 139] | B (B represents 100-1000 nM) | < 100 nM | < 100 nM | < 100 nM | < 100 nM | 100 to 1000 nM | 100 to 1000 nM | < 100 nM | < 100 nM | < 100 nM | < 100 nM
C[C@H]1C[C@@H](c2ccc3nc(-c4cc5cn(C)nc5cc4O)ccc3n2)CCN1 [Compound 140] | B (B represents 100-1000 nM) | 100 to 1000 nM | < 100 nM | < 100 nM | < 100 nM | 100 to 1000 nM | 100 to 1000 nM | 100 to 1000 nM | < 100 nM | < 100 nM | 100 to 1000 nM
Cn1cc2c(O)c(-c3cc4ccc(C5CCNCC5)nc4cn3)cc(Br)c2n1 [Compound 141] | C (C represents 1000-9999 nM) | 1000 to 10000 nM | 100 to 1000 nM | 100 to 1000 nM | 100 to 1000 nM | 1000 to 10000 nM | 1000 to 10000 nM | 1000 to 10000 nM | 1000 to 10000 nM | 1000 to 10000 nM | 1000 to 10000 nM
CN1CCC(c2ccc3nc(-c4cc5cn(C)nc5cc4O)ccc3n2)CC1 [Compound 142] | B (B represents 100-1000 nM) | 100 to 1000 nM | 100 to 1000 nM | 100 to 1000 nM | < 100 nM | 100 to 1000 nM | 100 to 1000 nM | 100 to 1000 nM | 100 to 1000 nM | 100 to 1000 nM | 100 to 1000 nM
COc1cc2nn(C)cc2cc1-c1ccc2c(F)c(C3CCNCC3)ccc2n1 [Compound 143] | B (B represents 100-1000 nM) | > 10000 nM | > 10000 nM | > 10000 nM | > 10000 nM | > 10000 nM | > 10000 nM | > 10000 nM | > 10000 nM | > 10000 nM | 1000 to 10000 nM

Reference: patent US20250092065A1, “2-(INDAZOL-5-YL)-6-(PIPERIDIN-4-YL)-1,7-NAPHTHYRIDINE DERIVATIVES AND RELATED COMPOUNDS AS MODULATORS FOR SPLICING NUCLEIC ACIDS AND FOR THE TREATMENT OF PROLIFERATIVE DISEASES” (REMIX THERAPEUTICS INC., priority 2022, published 2025)
